For series [1] the following is noted: rat, in vivo.
The conditions of series [2]: male, Sprague Dawley, rat, in vivo, iv, 2.25 mg/kg.
The nature of series [3]: Toxicokinetics in plasma after a single gavage administration. As to conditions: male rats.
The test system of a further series is rats. As to conditions: ref Hirata-Koizumi et al., 2008b, cited from earlier work.
For series [4] the following is noted: male, Sprague Dawley, rat, in vivo.
For series [5] the following is noted: rat, in vivo, 10 mg/kg; cited from earlier work.
Where [6] appears, read: male, Sprague Dawley, po, 30 mg/kg.
The mark [7] stands for this setting: male, Sprague Dawley, po, 300 mg/kg.
[8] abbreviates: male, Sprague Dawley, 300 mg/kg.

Read-outs that look alike come from different tables or passages of the source. Where only a bound is given, the exact number is not on record here.

For the compound `Cc1cc(-n2nc3ccc(Cl)cc3n2)c(O)c(C(C)(C)C)c1` [Bumetrizole, 2-(5-chloro-2H-1,2,3-benzotriazol-2-yl)-6-(1,1-dimethylethyl)-4-methylphenol], in series [1] (male, Sprague Dawley, 30 mg/kg), the “time points where plasma concentrations were below LOD” value amounted to 0.0333 h. Moreover, in series [1] (setting [6]), the AUC is 21000 ± 5300 ng·h/mL, the Cmax was determined as 2020 ± 490 ng/mL, the “Half-life (beta half-life)” value was 48.4 ± 116 h and the Tmax was found to be 3.08 ± 0.77 h. Further, in series [1] (setting [7]), the AUC turned out to be 41600 ± 11600 ng·h/mL, the Cmax was 2450 ± 710 ng/mL, the “Half-life (beta half-life)” value was 37.5 ± 401 h and the time to peak (Tmax) is given as 5.06 ± 1.24 h.
For `Cc1ccc(O)c(-n2nc3ccccc3n2)c1` [Drometrizole, 2-(2H-Benzotriazol-2-yl)-4-methylphenol], the “Half-life (beta half-life)” value in series [1] (male, Sprague Dawley, 30 mg/kg) is 1120 ± 5780 h. Further, in series [1] (setting [6]), the Cmax turned out to be 138 ± 1900 ng/mL and the Tmax stood at 0.0196 ± 24.6 h. Further, in series [1] (setting [7]), the AUC turned out to be 29800 ± 14700 ng·h/mL, the Cmax was 358 ± 26 ng/mL, the “Half-life (beta half-life)” value was found to be 103 ± 72 h and the “plasma elimination half-life (beta half-life)” value was 103 to 1120 h.
For `CC(C)(C)CC(C)(C)c1ccc(O)c(-n2nc3ccccc3n2)c1` [Octrizole, 2-(2H-Benzotriazol-2-yl)-4-(1,1,3,3-tetramethylbutyl)phenol], in series [2], the AUC amounted to 3510 ± 440 ng·h/mL, the Cmax is reported as 20600 ± 7800 ng/mL and the “Half-life (gamma half-life)” value worked out at 15.4 ± 2.4 h. In addition, in series [1] (setting [6]), the AUC is 5980 ± 1950 ng·h/mL, the Cmax came out at 561 ± 170 ng/mL, the “Half-life (beta half-life)” value came to 56.8 ± 233 h and the Tmax is recorded as 3.71 ± 1.08 h. In series [1] (setting [7]), the AUC was determined as 30000 ± 7400 ng·h/mL, the Cmax was found to be 3590 ± 850 ng/mL and the “Half-life (beta half-life)” value stood at 21.4 ± 18.2 h. Also, the “time points where plasma concentrations were below LOD” value in series [3] (single gavage 300 mg/kg group) is listed as 0.0333 h.
Regarding `CC(C)(C)c1ccc(O)c(-n2nc3ccccc3n2)c1` [ditBu-BZT, 2-(2H-benzotriazol-2-yl)-4-tert-butylphenol], in the series on rats (gavage 0.1–12.5 mg/kg for 13 and 52 weeks), the toxicity finding entry is “enlarged livers accompanied by histopathological changes”. In the series on rats (highest dose), the “toxicity finding at the highest dose” value is “Increased relative organ weights (e.g., brain and testes) and hematological effects”.
`CCC(C)(C)c1cc(-n2nc3ccccc3n2)c(O)c(C(C)(C)CC)c1` [ditPe-BZT, 2-(2H-Benzotriazol-2-yl)-4,6-bis(1,1-dimethylpropyl)phenol]: the Tmax in series [1] (setting [6]) was 2.96 ± 1.10 h. The “Half-life (beta half-life)” value in series [1] (setting [7]) came to 17.1 ± 53.3 h. The compound further registered an Oral bioavailability in series [4] (300 mg/kg) of 5.53%.
For the compound `CC(C)(C)c1ccc(O)c(-n2nc3ccccc3n2)c1` [tBu-BZT, 2-(2H-Benzotriazol-2-yl)-4-tert-butylphenol], the “increase in AUC with a 10-fold increase in the dose” value in series [3] (gavage 30 to 300 mg/kg) is recorded as “dose-proportional”.
With `CC(C)(C)c1cc(CCC(=O)OCCCCCCOC(=O)CCc2cc(-n3nc4ccccc4n3)c(O)c(C(C)(C)C)c2)cc(-n2nc3ccccc3n2)c1O` [tBuPrHexEst-BZT, 3-(2H-benzotriazol-2-yl)-5-(1,1-dimethylethyl)-4-hydroxybenzenepropanoic acid, 1,6-hexanediyl ester], in series [5], the “Tmax (time at which Cmax was achieved)” value is 1 to 2 h, the apparent half-life is recorded as ~ 12 h and the “maximum blood concentration (Cmax)” value is below 0.13 µg/g.
`COC(=O)CCc1cc(-n2nc3ccccc3n2)c(O)c(C(C)(C)C)c1` [tBuPrMeEst-BZT, 3-(2H-benzotriazol-2-yl)-5-(1,1-dimethylethyl)-4-hydroxybenzenepropanoic acid, methyl ester]: in series [5], the “Tmax (time at which Cmax was achieved)” value is 1 to 2 h and the “maximum blood concentration (Cmax)” value was below 2 µg/g.
Consider `CCCCCCCCOC(=O)CCc1cc(-n2nc3ccccc3n2)c(O)c(C(C)(C)C)c1` [tBuPrOcEst-BZT, 3-(2H-Benzotriazol-2-yl)-5-(1,1-dimethylethyl)-4-hydroxybenzenepropanoic acid, octyl ester], for which, in series [2], the exposure (AUC) was 13800 ± 300 ng·h/mL, the Cmax is 22400 ± 900 ng/mL and the “Half-life (gamma half-life)” value is reported as 19.2 ± 1.1 h. Besides, in series [1] (male, Sprague Dawley, 30 mg/kg), the AUC is 42300 ± 11500 ng·h/mL, the Cmax is 12800 ± 3100 ng/mL, the “Half-life (beta half-life)” value is 9.53 ± 1.73 h and the Tmax is 1.07 ± 0.30 h. For the same compound, in series [1] (setting [8]), the AUC stood at 294000 ± 85000 ng·h/mL, the Cmax is reported as 47800 ± 13500 ng/mL, the “Half-life (beta half-life)” value was 13.6 ± 6.4 h and the time to peak (Tmax) came out at 1.91 ± 0.56 h. Besides, in series [1] (setting [7]), the Cmax lay in the range of 12800 to 47800 ng/mL, the time of peak concentration (Tmax) lay in the range of 1.07 to 1.91 h and the “plasma elimination half-life (beta half-life)” value fell in the range of 9.53 to 13.6 h. In addition, in series [1] (po), the “concentration of the parent in plasma” value is “mostly below LOD”. Moreover, the Oral bioavailability in series [4] (30 mg/kg) was found to be 23.0%. In series [4] (300 mg/kg), this compound yielded an Oral bioavailability of 16.0%.

Values taken from article PMC8883597 (Xenobiotica; the fate of foreign compounds in biological …, 2021).
